Where no end group is shown, it is not given here.
Assays:
purified HLA DRB1 *0301 = purified HLA DRB1 *0301 (Homo sapiens, UniProt P01903+P01911, A100K/A102G/A103R/A169T/F55Y/I96L/K41T/L162R/M171V/P40S/Q125H/Q178H/Q39Y/R42S/S66N/T106N/T262R/W38E/Y61H); experiment: IC50nM to purified HLA | DRB1 *0301
Description: (§1) Table printed on a drawing sheet, FIG. 1
Head of the field: IC50nM to purified HLA | DRB1 *0301
(§2) First copying reader's note: The comma is the decimal sign and the point a thousands separator (e.g. 21.831); some values are printed bold or italic and some SEQ ID NOs underlined, with no legend on the sheet.
Where the first naming reader finds the target: head: IC50nM to purified HLA | DRB1 *0301

purified HLA DRB5 *0101 = purified HLA DRB5 *0101 (Homo sapiens, UniProt P01903+Q30154); experiment: IC50nM to purified HLA | DRB5 *0101
Description: as §1
Head of the field: IC50nM to purified HLA | DRB5 *0101
as §2
Where the first naming reader finds the target: head: IC50nM to purified HLA | DRB5 *0101

purified HLA DRB1 *1501 = purified HLA DRB1 *1501 (Homo sapiens, UniProt P01903+P01911); experiment: IC50nM to purified HLA | DRB1 *1501
Description: as §1
Head of the field: IC50nM to purified HLA | DRB1 *1501
as §2
Where the first naming reader finds the target: head: IC50nM to purified HLA | DRB1 *1501

purified HLA DRB1 *0401 = purified HLA DRB1 *0401 (Homo sapiens, UniProt P01903+P01911, A100K/A169T/F76Y/I96L/K127E/L162R/M171V/N62H/P40V/Q125Y/R42H/S133A/S149N/S66Y/V115G/V209L/W38E); experiment: IC50nM to purified HLA | DRB1 *0401
Description: as §1
Head of the field: IC50nM to purified HLA | DRB1 *0401
as §2
Where the first naming reader finds the target: head: IC50nM to purified HLA | DRB1 *0401

purified HLA DRB1 *0701 = purified HLA DRB1 *0701 (Homo sapiens, UniProt P01903+P01911, A100R/A102G/A103Q/D57E/D86V/E43K/F76Y/K127E/L162R/M171V/P40G/Q125H/Q99D/R33Q/R42Y/R54Q/S133A/S66F/T210M/V115G/Y107V/Y59L/Y89S); experiment: IC50nM to purified HLA | DRB1 *0701
Description: as §1
Head of the field: IC50nM to purified HLA | DRB1 *0701
as §2
Where the first naming reader finds the target: head: IC50nM to purified HLA | DRB1 *0701

purified HLA DRB1 *0901 = purified HLA DRB1 *0901 (Homo sapiens, UniProt P01903+P01911, A100R/A103E/D57H/D86V/F55Y/F60I/F76Y/I96F/K127E/L162R/M171V/P40D/Q125H/Q99R/R33Q/R42F/S133A/S66N/T210M/V115G/W38K/Y107V/Y59G/Y89S); experiment: IC50nM to purified HLA | DRB1 *0901
Description: as §1
Head of the field: IC50nM to purified HLA | DRB1 *0901
as §2
Where the first naming reader finds the target: head: IC50nM to purified HLA | DRB1 *0901

purified HLA DRB1 *1302 = purified HLA DRB1 *1302 (Homo sapiens, UniProt P01903+P01911, A100E/A169T/K41T/L162R/M171V/P40S/Q125H/Q178H/Q39Y/Q99D/R42S/S66N/T262R/V115G/W38E/Y61H); experiment: IC50nM to purified HLA | DRB1 *1302
purified HLA DRB1 *1302, sequence (P01903 26-254 limits assumed, other chains not shown): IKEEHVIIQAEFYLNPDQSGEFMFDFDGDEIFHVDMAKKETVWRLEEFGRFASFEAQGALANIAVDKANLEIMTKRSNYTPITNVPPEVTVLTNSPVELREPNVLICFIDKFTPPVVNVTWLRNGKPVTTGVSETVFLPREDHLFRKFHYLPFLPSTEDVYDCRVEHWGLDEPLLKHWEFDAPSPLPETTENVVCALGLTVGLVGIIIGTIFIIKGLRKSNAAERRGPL
Description: as §1
Head of the field: IC50nM to purified HLA | DRB1 *1302
as §2
Where the first naming reader finds the target: head: IC50nM to purified HLA | DRB1 *1302

purified HLA DRB4 *0101 = purified HLA DRB4 *0101 (Homo sapiens, UniProt P01903+P13762, G164S); experiment: IC50nM to purified HLA | DRB4 *0101
purified HLA DRB4 *0101, sequence (P01903 26-254 limits assumed): as the sequence (P01903 26-254 limits assumed, other chains not shown) above
purified HLA DRB4 *0101, sequence (P13762 whole entry G164S): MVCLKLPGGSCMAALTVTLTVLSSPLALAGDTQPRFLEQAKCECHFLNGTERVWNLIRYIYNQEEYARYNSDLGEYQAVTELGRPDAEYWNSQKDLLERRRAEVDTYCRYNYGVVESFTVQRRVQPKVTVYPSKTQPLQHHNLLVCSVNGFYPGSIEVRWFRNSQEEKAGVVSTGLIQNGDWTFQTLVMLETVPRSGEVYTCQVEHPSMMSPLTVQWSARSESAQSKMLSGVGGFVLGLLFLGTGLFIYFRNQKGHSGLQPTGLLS
Description: as §1
Head of the field: IC50nM to purified HLA | DRB4 *0101
as §2
Where the first naming reader finds the target: head: IC50nM to purified HLA | DRB4 *0101

purified HLA DRB1 *0404 = purified HLA DRB1 *0404 (Homo sapiens, UniProt P01903+P01911, A100R/A169T/F76Y/I96L/K127E/L162R/M171V/N62H/P40V/Q125Y/R42H/S133A/S149N/S66Y/V209L/W38E); experiment: IC50nM to purified HLA | DRB1 *0404
Description: as §1
Head of the field: IC50nM to purified HLA | DRB1 *0404
as §2
Where the first naming reader finds the target: head: IC50nM to purified HLA | DRB1 *0404

purified HLA DRB1 *1101 = purified HLA DRB1 *1101 (Homo sapiens, UniProt P01903+P01911, A100R/A169T/A87E/I96F/K41T/L162R/M171V/P40S/Q125H/Q178H/Q39Y/Q99D/R42S/S66Y/T262R/V115G/W38E); experiment: IC50nM to purified HLA | DRB1 *1101
purified HLA DRB1 *1101, sequence (P01903 26-254 limits assumed, other chains not shown): as the sequence (P01903 26-254 limits assumed, other chains not shown) above
Description: as §1
Head of the field: IC50nM to purified HLA | DRB1 *1101
as §2
Where the first naming reader finds the target: head: IC50nM to purified HLA | DRB1 *1101

purified HLA DRB1 *0405 = purified HLA DRB1 *0405 (Homo sapiens, UniProt P01903+P01911, A100R/A169T/D86S/F76Y/I96L/K127E/L162R/M171V/N62H/P40V/Q125Y/R42H/S133A/S149N/S66Y/V115G/V209L/W38E); experiment: IC50nM to purified HLA | DRB1 *0405
Description: as §1
Head of the field: IC50nM to purified HLA | DRB1 *0405
as §2
Where the first naming reader finds the target: head: IC50nM to purified HLA | DRB1 *0405

purified HLA DRB1 *0101 = purified HLA DRB1 *0101 (Homo sapiens, UniProt P01903+P01911, A100R/D57E/F55L/F60I/F76Y/I96L/L162R/M171V/P40L/Q125E/R42F/V115G/Y59C); experiment: IC50nM to purified HLA | DRB1 *0101
Description: as §1
Head of the field: IC50nM to purified HLA | DRB1 *0101
as §2
Where the first naming reader finds the target: head: IC50nM to purified HLA | DRB1 *0101

purified HLA DRB1 *0802 = purified HLA DRB1 *0802 (Homo sapiens, UniProt P01903+P01911, A100R/A103L/A169T/F76Y/H45Y/I96F/K41T/L162R/M171V/P40S/Q125H/Q178H/Q39Y/Q99D/R218S/R42G/S66Y/V115G/W38E); experiment: IC50nM to purified HLA | DRB1 *0802
Description: as §1
Head of the field: IC50nM to purified HLA | DRB1 *0802
as §2
Where the first naming reader finds the target: head: IC50nM to purified HLA | DRB1 *0802

purified HLA DRB1 *0301, sequence (P01903 26-254 limits assumed, other chains not shown): as above

IC50 (purified HLA DRB1 *0301) [nM]	IC50 (purified HLA DRB5 *0101) [nM]	IC50 (purified HLA DRB1 *1501) [nM]	IC50 (purified HLA DRB1 *0401) [nM]	IC50 (purified HLA DRB1 *0701) [nM]	IC50 (purified HLA DRB1 *0901) [nM]	IC50 (purified HLA DRB1 *1302) [nM]	IC50 (purified HLA DRB4 *0101) [nM]	IC50 (purified HLA DRB1 *0404) [nM]	IC50 (purified HLA DRB1 *1101) [nM]	IC50 (purified HLA DRB1 *0405) [nM]	IC50 (purified HLA DRB1 *0101) [nM]	IC50 (purified HLA DRB1 *0802) [nM]	Sequence
–	9.4	66	4.5	–	113	–	12500	6.1	57	8.4	43	–	AAAFFVAAFTLKADA [SEQ ID NO: 18]
140	4.4	103	4	–	–	187	5520	4.5	46	9.5	3.4	–	AAAFFVAANTLKADA [SEQ ID NO: 19]
262	11	20	3.1	110	45	1530	384	4.8	–	–	4.7	–	AAAHFVAAWTLKAAA [SEQ ID NO: 25]
–	5.9	–	1.6	–	–	917	291	1.4	11	6.6	2.7	6.1	AAAYFVAAWTLKAAA [SEQ ID NO: 20]
77	–	4	2.3	65	11	830	445	1.9	–	7.3	–	5.2	AAAYFVAAYTLHAAA [SEQ ID NO: 22]

The remaining lines, values behind:

Sequence	IC50 (purified HLA DRB1 *0301) [nM]	IC50 (purified HLA DRB5 *0101) [nM]	IC50 (purified HLA DRB1 *1501) [nM]	IC50 (purified HLA DRB1 *0401) [nM]	IC50 (purified HLA DRB1 *0701) [nM]	IC50 (purified HLA DRB1 *0901) [nM]	IC50 (purified HLA DRB1 *1302) [nM]	IC50 (purified HLA DRB4 *0101) [nM]	IC50 (purified HLA DRB1 *0404) [nM]	IC50 (purified HLA DRB1 *1101) [nM]	IC50 (purified HLA DRB1 *0405) [nM]	IC50 (purified HLA DRB1 *0101) [nM]	IC50 (purified HLA DRB1 *0802) [nM]
AAAFFVAAFTLHAAA [SEQ ID NO: 14]	371	29	25	2	610	48	219000	129	1.1	–	–	–	–
AAAFFVAANTLHAAA [SEQ ID NO: 15]	–	–	70	3.8	–	31	64	876	4.1	42	27	6.5	–
AAAFFVAAYTLKADA [SEQ ID NO: 17]	–	7.3	25	5	45	–	856	–	6	55	33	3.8	6.7
AAAKFVAAWTLHAAA [SEQ ID NO: 6]	–	22	–	3.4	35	24	656	209	2.4	–	–	3.9	7.6
AAAKFVAAWTLKAAA [SEQ ID NO: 4]	209	5.4	9.8	–	49	–	648	207	2.9	11	25	3.3	5.2
AAAWFVAANTLHAAA [SEQ ID NO: 10]	174	22	101	2.9	43	33	38	606	–	–	–	3.8	8.6
AAAWFVAAWTLHAAA [SEQ ID NO: 7]	111	–	36	–	84	33	4240	447	2	32	–	4.3	–
AAAWFVAAWTLKAAA [SEQ ID NO: 5]	161	9.3	31	3.1	–	35	2930	566	3.8	–	–	–	8.5
AAAWFVAAYTLHAAA [SEQ ID NO: 8]	160	25	6.2	3.8	91	19	3110	460	3.2	–	24	3.9	–

Reference: patent publication US9789181B2, “PAN-DR binding polypeptides and uses thereof” (Epimmune Inc., priority 2009, dated 2017)
